One experiment concerns the target T1, EphA2 (Homo sapiens, UniProt P29317).
T1 construct: purchased
Briefly: EphA2 SPR Assay. Type of experiment: binding. The settings on record: n = 2. As for the experimental part:
SPR Measurements: Non-Fc fusion proteins were biotinylated with EZ-Link™ Sulfo-NHS-LC-Biotin for 1 hour in 4 mM sodium acetate, 100 mM NaCl, pH 5.4 with a 3× molar excess of biotin over protein. The degree of labelling was determined using a Fluorescence Biotin QuantificationKit (Thermo) after dialysis of the reaction mixture into PBS. For analysis of peptide binding, a Biacore T200 10 instrument was used utilising a XanTec CMD500D chip. Streptavidin was immobilized on the chip using standard amine-coupling chemistry at 25° C. with HBS—N (10 mM HEPES, 0.15 M NaCl, pH 7.4) as the running buffer. Briefly, the carboxymethyl dextran surface was activated with a 7 min injection of a 1:1 ratio of 0.4 M 1-ethyl-3-(3-dimethylaminopropyl) carbodiimide hydrochloride (EDC)/0.1 M N-hydroxy succinimide (NHS) at a flow rate of 10 μl/min. For capture of streptavidin, the protein was diluted to 0.2 mg/ml in 10 mM sodium acetate (pH 4.5) and captured by injecting 120 μl onto the activated chip surface. Residual activated groups were blocked with a 7 min injection of 1 M ethanolamine (pH 8.5):HBS—N (1:1). Buffer was changed to PBS/0.05% Tween 20 and biotinylated EphA2 was captured to a level of 500-1500 RU using a dilution of protein to 0.2 μM in buffer. […]

Another experiment addresses MT1-MMP (Homo sapiens, UniProt P50281). The conditions noted are these: bicyclic peptide formed with TBMB scaffold; MT1-MMP binder; cited from earlier work.
A further experiment concerns the target CAIX (Homo sapiens, UniProt Q16790). The conditions noted are these: bicyclic peptide formed with TBMB scaffold; CAIX binder; cited from earlier work.

Data on four molecules can be found in patent US10919937B2, “Bicyclic peptide ligands and uses thereof” (BicycleTx Limited, priority 2018, dated 2021).

*1 amine or outer side, *2 acyl side, *3 side chain or, on linkers, in order; H or OH if unused. Where a SMILES comes first, the peptide text is derived from it. Bridges are numbered along the chain shown (N, C = ends). [ ]: non-standard residue; d: D form. X11 = O=C(C[*:1])N1CCN(c2ccc(-c3nc(-c4ccc(N5CCN(C(=O)C[*:2])CC5)cc4)nc(-c4ccc(N5CCN(C(=O)C[*:3])CC5)cc4)n3)cc2)CC1; X7 = O=C(c1ccc(C[*:1])cc1)N1CN(C(=O)c2ccc(C[*:2])cc2)CN(C(=O)c2ccc(C[*:3])cc2)C1

T1 sequence (P29317 24-976, species assumed): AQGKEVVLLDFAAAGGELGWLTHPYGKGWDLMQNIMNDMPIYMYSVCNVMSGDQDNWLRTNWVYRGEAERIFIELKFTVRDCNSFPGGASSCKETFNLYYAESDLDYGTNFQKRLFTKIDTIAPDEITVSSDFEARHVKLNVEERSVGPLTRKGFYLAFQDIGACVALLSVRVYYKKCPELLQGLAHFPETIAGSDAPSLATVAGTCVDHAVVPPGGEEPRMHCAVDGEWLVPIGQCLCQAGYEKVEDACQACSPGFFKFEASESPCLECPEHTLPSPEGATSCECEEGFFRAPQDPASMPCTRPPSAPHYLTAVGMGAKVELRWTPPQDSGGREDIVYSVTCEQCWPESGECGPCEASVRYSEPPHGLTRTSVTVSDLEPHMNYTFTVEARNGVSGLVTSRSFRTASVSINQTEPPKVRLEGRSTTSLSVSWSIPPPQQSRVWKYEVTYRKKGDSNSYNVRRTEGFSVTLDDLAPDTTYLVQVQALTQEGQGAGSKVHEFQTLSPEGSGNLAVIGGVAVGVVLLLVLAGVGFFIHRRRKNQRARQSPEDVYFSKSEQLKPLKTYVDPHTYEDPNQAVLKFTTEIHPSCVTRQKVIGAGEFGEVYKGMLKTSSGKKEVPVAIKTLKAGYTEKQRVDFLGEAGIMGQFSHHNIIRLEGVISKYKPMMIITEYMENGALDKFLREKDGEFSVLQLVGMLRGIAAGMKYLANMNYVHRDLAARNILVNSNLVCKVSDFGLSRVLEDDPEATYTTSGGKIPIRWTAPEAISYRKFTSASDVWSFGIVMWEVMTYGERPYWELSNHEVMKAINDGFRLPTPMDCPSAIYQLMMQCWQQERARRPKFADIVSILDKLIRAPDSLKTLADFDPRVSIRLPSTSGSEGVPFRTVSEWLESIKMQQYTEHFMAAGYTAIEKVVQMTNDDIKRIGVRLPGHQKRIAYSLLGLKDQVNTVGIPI

In the case of `CC(C)[C@H](NC(=O)[C@H](CC(=O)O)NC(=O)[C@H](C)N)C(=O)N[C@@H](Cc1cnc[nH]1)C(=O)N[C@H]1CSCc2ccc(cc2)C(=O)N2CN3CN(C2)C(=O)c2ccc(cc2)CSC[C@H](NC(=O)[C@H](Cc2c[nH]c4ccccc24)NC(=O)[C@H](Cc2ccccc2)NC(=O)[C@H]2CCCN2C(=O)CNC(=O)[C@H](Cc2c[nH]c4ccccc24)NC(=O)[C@@H]2CCCN2C1=O)C(=O)N1CCC[C@H]1C(=O)N[C@@H](C(C)C)C(=O)N[C@H](CC(N)=O)C(=O)N[C@H](CCCNC(=N)N)C(=O)N1CCC[C@@H]1C(=O)NCC(=O)N[C@H](C(=O)N[C@@H](C)C(=O)O)CSCc1ccc(cc1)C3=O` [I-103] (H-ADVHCPWG[dP]FWCPV[dN][dR][dP]GCA-OH; linker 5-12-19 via X7), the Kd on EphA2 was above 10000 nM.
On EphA2, `CC(C)[C@H](NC(=O)[C@H](CC(=O)O)NC(=O)[C@H](C)N)C(=O)N[C@@H](Cc1cnc[nH]1)C(=O)N[C@H]1CSCC(=O)N2CCN(CC2)c2ccc(cc2)-c2nc3nc(n2)-c2ccc(cc2)N2CCN(CC2)C(=O)CSC[C@H](NC(=O)[C@H](Cc2c[nH]c4ccccc24)NC(=O)[C@H](Cc2ccccc2)NC(=O)[C@H]2CCCN2C(=O)CNC(=O)[C@H](Cc2c[nH]c4ccccc24)NC(=O)[C@@H]2CCCN2C1=O)C(=O)N1CCC[C@H]1C(=O)N[C@@H](C(C)C)C(=O)N[C@H](CC(N)=O)C(=O)N[C@H](CCCNC(=N)N)C(=O)N1CCC[C@@H]1C(=O)NCC(=O)N[C@H](C(=O)N[C@@H](C)C(=O)O)CSCC(=O)N1CCN(CC1)c1ccc-3cc1` [I-104] (H-ADVHCPWG[dP]FWCPV[dN][dR][dP]GCA-OH; linker 5-12-19 via X11) showed a Kd below 500 nM.
On to “βAla-Sar10-A-C(D-Ala)NE(1Nal)(D-Ala)CEDFYD(tBuGLy)C (AXACANEXACEDFYDGC; βAla-Sar10 N-terminal; non-natural residues; molecular scaffold; MOD_RES (1)..(1) Beta-Ala; MOD_RES (2)..(2) Sar10; MOD_RES (5)..(5) D-Ala; MOD_RES (8)..(8) 1Nal; MOD_RES (9)..(9) D-Ala; MOD_RES (16)..(16) tBu-Gly) [17-69-07-N241, treated with molecular scaffold reagents]”, for which the Kd in the experiment with MT1-MMP is 1.2 nM.
For “βAla-Sar10-A-CTECWVDGWVPC (AXACTECWVDGWVPC; βAla-Sar10 N-terminal; TBMB scaffold; MOD_RES (1)..(1) Beta-Ala; MOD_RES (2)..(2) Sar10) [compound 2]”, the Kd with CAIX was 10 nM.

The Kd is a measure of binding affinity in units of concentration.
